Measurements: paper PMC7560154, “Novel Antimicrobial Peptide from Temporin L in The Treatment of Staphylococcus pseudintermedius and Malassezia pachydermatis in Polymicrobial Inter-Kingdom Infection” (Antibiotics, 2020)
≈ marks a conversion by molar mass, not a printed value. Read-outs that look alike come from different tables or passages of the source. Where a SMILES comes first, the peptide text is derived from it. [ ]: non-standard residue; d: D form. Hyp = O=C(O)[C@@H]1C[C@@H](O)CN1; dHyp = O=C(O)[C@H]1C[C@H](O)CN1; Aic = NC1(C(=O)O)Cc2ccccc2C1; dNle = CCCC[C@@H](N)C(=O)O

Legend:
M. pachydermatis = conditions: for MIC Values: broth microdilution, Sabouraud dextrose broth + 1% Tween 80, 48 h, ≥90% inhibition of growth, OD 595 nm; for MMC/MIC Ratio: M. pachydermatis; for MMC Values (minimum mycocidal concentration): ≥3 log10 reduction in colony count from starting inoculum, agar 72 h at 30 °C
Experimental: (§1) MIC of all compounds was determined in Sabouraud Dextrose broth with 1% tween 80 (SB) medium, for M. pachydermatis, and Mueller–Hinton broth (MH), for S. pseudintermedius, by the broth microdilution assay (BMD) in 96-well microtiter plates, as previously reported. Specifically, SB containing 1% Tween 80 was used instead of RPMI 1640 medium. All compounds were dissolved in ethanol and ketoconazole in dimethyl sulfoxide (DMSO). The solutions were serially diluted in SB and MH two-fold from 0.19 to 50 μM. M. pachydermatis suspension was prepared from 3-day-old colonies grown on Sabouraud agar at 30 °C. The final concentration of the yeast inoculum suspensions was equivalent to 1–3 × 10^3 CFU/mL. Bacterial suspensions were diluted to yield an optical density (OD) around 0.5 at 595 nm and further diluted to a final concentration of 1 × 10^6 CFU/mL. The compounds were added to the microbial suspension in each well yielding a final cell concentration of 5 × 10^5 CFU/mL. Positive controls included oxacillin 5 μM (2 μg/mL) and vancomycin 1.4 μM (2 μg/mL) for S. pseudintermedius or ketoconazole 0.2 μM (0.125 μg/mL) for M. pachydermatis. Negative control wells were set to contain bacteria in MH or yeasts in SB plus the amount of ethanol used to dilute each compound. Medium turbidity was measured by a microtiter plate reader (Tecan, Milan, Italy) at 595 nm after 24 h for S. pseudintermedius and 48 h for M. pachydermatis. Absorbance was proportional to microbial growth. The MIC was defined as the lowest concentration of drug that caused a prominent decrease (≥90% inhibition) in visible growth relative to that of the growth control.

[1] = system: methicillin-resistant S. pseudintermedius (MRSP); test: microbe, parasite or virus in culture; assay type: cell-based, Staphylococcus pseudintermedius; conditions: Staphylococcus pseudintermedius, 24 h
Experimental: as §1

[2] = system: methicillin-susceptible S. pseudintermedius (MSSP); test: microbe, parasite or virus in culture; assay type: cell-based, Staphylococcus pseudintermedius; conditions: Staphylococcus pseudintermedius, 24 h
Experimental: as §1

MRSP = test: Checkerboard synergy of peptide 8 and oxacillin; assay type: cell-based, Staphylococcus pseudintermedius
Experimental: The interaction between peptide 8 and oxacillin against MRSP was evaluated by the checkerboard method. Briefly, twofold serial dilutions of oxacillin distributed in horizontal rows of 96-well microtiter plate were cross-diluted vertically by twofold serial dilutions of peptide 8 to at least double the MIC. The peptide 8 tested concentration ranging from 0.19 to 12.5 μM and oxacillin from 1.25 to 25 μM (0.5 to 10 μg/mL). Microtiter plates were inoculated with bacteria at an approximate concentration of 10^5 CFU/mL and incubated at 37 °C for 24 h. […] To evaluate the effect of the combination treatment, the fractional inhibitory concentration (FIC) index for each combination was calculated as follows: FIC index = FIC of peptide 8 + FIC of oxacillin, where FIC of peptide 8 (or oxacillin) was defined as the ratio of MIC of peptide 8 (or oxacillin) in combination and MIC of peptide 8 (or oxacillin) alone. The FIC index values were interpreted as follows: ≤0.5, synergistic; >0.5 to ≤1.0, additive; >1.0 to ≤2.0, indifferent; and >2.0, antagonistic effects.

Row | SMILES | MIC Values (M. pachydermatis) [µM] | MMC/MIC Ratio (M. pachydermatis) | MMC Values (minimum mycocidal concentration) (M. pachydermatis) [µM] | also measured
1 | CC[C@H](C)[C@H](NC(=O)[C@H](CCCNC(=N)N)NC(=O)CNC(=O)[C@@H](CC(C)C)NC(=O)[C@H](Cc1ccccc1)NC(=O)[C@H](CCCCN)NC(=O)[C@H](CO)NC(=O)[C@H](Cc1ccccc1)NC(=O)[C@H](Cc1c[nH]c2ccccc12)NC(=O)[C@@H]1CCCN1C(=O)[C@@H](NC(=O)[C@@H](N)Cc1ccccc1)C(C)C)C(=O)N[C@@H](CC(C)C)C(N)=O [Peptide 1] (H-FVPWFSKF[dL]GRIL-NH2) | 25 |  |  | 
2 | CC[C@H](C)[C@H](NC(=O)[C@H](CCCNC(=N)N)NC(=O)[C@H](CCCCN)NC(=O)[C@@H](CC(C)C)NC(=O)[C@H](Cc1ccccc1)NC(=O)[C@H](CCCCN)NC(=O)[C@H](CO)NC(=O)[C@H](Cc1ccccc1)NC(=O)[C@H](Cc1c[nH]c2ccccc12)NC(=O)[C@@H]1CCCN1C(=O)[C@@H](NC(=O)[C@@H](N)Cc1ccccc1)C(C)C)C(=O)N[C@@H](CC(C)C)C(N)=O [Peptide 7] (H-FVPWFSKF[dL]KRIL-NH2; N-terminus assumed) | 12.5 | 2 | 25 | 
3 | Cc1onc(-c2ccccc2)c1C(=O)N[C@@H]1C(=O)N2[C@@H]1SC(C)(C)[C@@H]2C(=O)O [Oxacillin, oxacillin, reference compound] |  |  |  | MIC ([1]; MRSP, Mueller-Hinton broth, ≥90% inhibition, three independent experiments in triplicate, read-out: MIC): 25 µM (≈ 10 µg/mL); MIC ([2]; MSSP, Mueller-Hinton broth, ≥90% inhibition, three independent experiments in triplicate, read-out: MIC): < 5 µM; Oxacillin MIC value reduction in combination with peptide 8 (MRSP; MRSP, oxacillin alone versus oxacillin in combination): about eight; Concentration of oxacillin in the most synergistic combination (MRSP; with 1.56 μM peptide 8, MRSP, 1/8 MIC): 3.1 µM
4 | CC[C@H](C)[C@H](NC(=O)[C@H](CCCNC(=N)N)NC(=O)[C@H]1C[C@H](O)CN1C(=O)[C@@H](CC(C)C)NC(=O)[C@H](Cc1ccccc1)NC(=O)[C@H](CCCCN)NC(=O)[C@H](CO)NC(=O)[C@H](Cc1ccccc1)NC(=O)[C@H](Cc1c[nH]c2ccccc12)NC(=O)[C@@H]1CCCN1C(=O)[C@@H](NC(=O)[C@@H](N)Cc1ccccc1)C(C)C)C(=O)N[C@@H](CC(C)C)C(N)=O [Peptide 5] (H-FVPWFSKF[dL][dHyp]RIL-NH2) |  | 4 | 100 | 
5 | CCCC[C@@H](NC(=O)[C@@H](CC(C)C)NC(=O)[C@H](Cc1ccccc1)NC(=O)[C@H](CCCCN)NC(=O)[C@H](CO)NC(=O)[C@H](Cc1ccccc1)NC(=O)[C@H](Cc1c[nH]c2ccccc12)NC(=O)[C@@H]1CCCN1C(=O)[C@@H](NC(=O)[C@@H](N)Cc1ccccc1)C(C)C)C(=O)N[C@@H](CCCNC(=N)N)C(=O)N[C@H](C(=O)N[C@@H](CC(C)C)C(N)=O)[C@@H](C)CC [Peptide 6] (H-FVPWFSKF[dL][dNle]RIL-NH2; N-terminus assumed) | 25 | 4 | 100 | 
6 | CN[C@H](CC(C)C)C(=O)N[C@H]1C(=O)N[C@@H](CC(N)=O)C(=O)N[C@H]2C(=O)N[C@H]3C(=O)N[C@H](C(=O)N[C@H](C(=O)O)c4cc(O)cc(O)c4-c4cc3ccc4O)[C@H](O)c3ccc(c(Cl)c3)Oc3cc2cc(c3O[C@@H]2O[C@H](CO)[C@@H](O)[C@H](O)[C@H]2O[C@H]2C[C@](C)(N)[C@H](O)[C@H](C)O2)Oc2ccc(cc2Cl)[C@H]1O [Vancomycin, vancomycin, reference compound] |  |  |  | MIC [1]: < 1.4 µM; MIC [2]: < 1.4 µM
7 | CC[C@H](C)[C@H](NC(=O)[C@H](CCCNC(=N)N)NC(=O)[C@H]1CCCN1C(=O)[C@@H](CC(C)C)NC(=O)[C@H](Cc1ccccc1)NC(=O)[C@H](CCCCN)NC(=O)[C@H](CO)NC(=O)[C@H](Cc1ccccc1)NC(=O)[C@H](Cc1c[nH]c2ccccc12)NC(=O)[C@@H]1CCCN1C(=O)[C@@H](NC(=O)[C@@H](N)Cc1ccccc1)C(C)C)C(=O)N[C@@H](CC(C)C)C(N)=O [Peptide 3] (H-FVPWFSKF[dL][dP]RIL-NH2) | 25 | 4 | 100 | 
8 | CC[C@H](C)[C@H](NC(=O)[C@H](CCCNC(=N)N)NC(=O)C1(NC(=O)[C@@H](CC(C)C)NC(=O)[C@H](Cc2ccccc2)NC(=O)[C@H](CCCCN)NC(=O)[C@H](CO)NC(=O)[C@H](Cc2ccccc2)NC(=O)[C@H](Cc2c[nH]c3ccccc23)NC(=O)[C@@H]2CCCN2C(=O)[C@@H](NC(=O)[C@@H](N)Cc2ccccc2)C(C)C)Cc2ccccc2C1)C(=O)N[C@@H](CC(C)C)C(N)=O [Peptide 11] (H-FVPWFSKF[dL][Aic]RIL-NH2) | 25 | 4 | 100 | 
9 | CC[C@H](C)[C@H](NC(=O)[C@H](CCCNC(=N)N)NC(=O)[C@@H](Cc1c[nH]c2ccccc12)NC(=O)[C@@H](CC(C)C)NC(=O)[C@H](Cc1ccccc1)NC(=O)[C@H](CCCCN)NC(=O)[C@H](CO)NC(=O)[C@H](Cc1ccccc1)NC(=O)[C@H](Cc1c[nH]c2ccccc12)NC(=O)[C@@H]1CCCN1C(=O)[C@@H](NC(=O)[C@@H](N)Cc1ccccc1)C(C)C)C(=O)N[C@@H](CC(C)C)C(N)=O [Peptide 10] (H-FVPWFSKF[dL][dW]RIL-NH2) | 12.5 | 2 | 25 | 
10 | CC[C@H](C)[C@H](NC(=O)[C@H](CCCNC(=N)N)NC(=O)[C@@H]1CCCN1C(=O)[C@@H](CC(C)C)NC(=O)[C@H](Cc1ccccc1)NC(=O)[C@H](CCCCN)NC(=O)[C@H](CO)NC(=O)[C@H](Cc1ccccc1)NC(=O)[C@H](Cc1c[nH]c2ccccc12)NC(=O)[C@@H]1CCCN1C(=O)[C@@H](NC(=O)[C@@H](N)Cc1ccccc1)C(C)C)C(=O)N[C@@H](CC(C)C)C(N)=O [Peptide 2] (H-FVPWFSKF[dL]PRIL-NH2) | 25 | 4 | 100 | 
11 | CC[C@H](C)[C@H](NC(=O)[C@H](CCCNC(=N)N)NC(=O)[C@@H]1C[C@@H](O)CN1C(=O)[C@@H](CC(C)C)NC(=O)[C@H](Cc1ccccc1)NC(=O)[C@H](CCCCN)NC(=O)[C@H](CO)NC(=O)[C@H](Cc1ccccc1)NC(=O)[C@H](Cc1c[nH]c2ccccc12)NC(=O)[C@@H]1CCCN1C(=O)[C@@H](NC(=O)[C@@H](N)Cc1ccccc1)C(C)C)C(=O)N[C@@H](CC(C)C)C(N)=O [Peptide 4] (H-FVPWFSKF[dL][Hyp]RIL-NH2) | 25 | 4 | 100 | 
12 | CC[C@H](C)[C@H](NC(=O)[C@H](CCCNC(=N)N)NC(=O)[C@H](Cc1c[nH]c2ccccc12)NC(=O)[C@@H](CC(C)C)NC(=O)[C@H](Cc1ccccc1)NC(=O)[C@H](CCCCN)NC(=O)[C@H](CO)NC(=O)[C@H](Cc1ccccc1)NC(=O)[C@H](Cc1c[nH]c2ccccc12)NC(=O)[C@@H]1CCCN1C(=O)[C@@H](NC(=O)[C@@H](N)Cc1ccccc1)C(C)C)C(=O)N[C@@H](CC(C)C)C(N)=O [Peptide 9] (H-FVPWFSKF[dL]WRIL-NH2) | 25 | 4 | 100 | 
